Data from patent publication US9663460B2, “Sulfur derivatives as chemokine receptor modulators” (ALLERGAN, INC., priority 2010, dated 2017).

Biological target: CCR2 (Homo sapiens (Human), UniProt P41597)
Test: Calcium activity assayed on the FLIPR Tetra in HEK-Gqi5 cells stably expressing CCR2
Format: cell-based
Details: FLIPR Tetra calcium assay
Experimental: HEK-Gqi5 cells stably expressing CCR2 were cultured in (DMEM high glucose, 10% FBS, 1% PSA, 400 μg/ml geneticin and 50 μg/ml hygromycin. Appropriate positive control chemokines (MCP-1, MIP1A or RANTES) was used as the positive control agonist for screening compound-induced calcium activity assayed on the FLIPR^Tetra. The drug plates were prepared in 384-well microplates using the EP3 and the MuItiPROBE robotic liquid handling systems. Compounds were synthesized and tested for CCR^2 activity.

Sequence of CCR2 (P41597 whole entry, species assumed): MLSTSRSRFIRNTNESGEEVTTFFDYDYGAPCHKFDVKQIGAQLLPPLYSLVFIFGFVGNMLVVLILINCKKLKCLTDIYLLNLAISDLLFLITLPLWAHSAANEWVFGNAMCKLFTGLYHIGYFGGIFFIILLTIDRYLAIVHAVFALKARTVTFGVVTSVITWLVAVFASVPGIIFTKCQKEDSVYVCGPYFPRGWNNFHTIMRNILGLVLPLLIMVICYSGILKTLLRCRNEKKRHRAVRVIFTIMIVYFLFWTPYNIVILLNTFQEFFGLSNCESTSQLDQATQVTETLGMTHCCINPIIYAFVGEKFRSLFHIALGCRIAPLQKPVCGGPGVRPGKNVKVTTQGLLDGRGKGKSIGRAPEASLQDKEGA

Row | CCR2 % ANTAGONISM [%] | IC50 [nM] | Compound
1 | 59 | 1030 | CC(C)NC(=O)CCSc1ccc(Cl)cc1NS(=O)(=O)c1ccc(Cl)c(C(F)(F)F)c1 [3-{[4-chloro-2-({[4-chloro-3-(trifluoromethyl)phenyl]sulfonyl}amino)phenyl]thio}-N-isopropylpropanamide]
2 | 54 |  | CN(C)C(=O)CCC[S+]([O-])c1ccc(Cl)cc1NS(=O)(=O)c1cc2ccccc2o1 (centres unmarked) [4-({2-[(1-benzofuran-2-ylsulfonyl)amino]-4-chlorophenyl}sulfinyl)-N,N-dimethylbutanamide]
3 | 98 | 1000 | CN(C)C(=O)CCCS(=O)(=O)c1ccc(Cl)cc1NS(=O)(=O)c1cc2ccccc2o1 [4-({2-[(1-benzofuran-2-ylsulfonyl)amino]-4-chlorophenyl}sulfonyl)-N,N-dimethylbutanamide]
4 | 94 | 116 | C[S+]([O-])c1ccc(Cl)cc1NS(=O)(=O)c1ccc(Br)cc1 (centres unmarked) [4-bromo-N-[5-chloro-2-(methylsulfinyl)phenyl]benzenesulfonamide]
5 | 84 | 403 | CS(=O)(=O)c1ccc(Cl)cc1NS(=O)(=O)c1ccc(Br)cc1 [4-bromo-N-[5-chloro-2-(methylsulfonyl)phenyl]benzenesulfonamide]
6 | 76 | 1330 | CSc1ccc(Cl)cc1NS(=O)(=O)c1ccc(Br)cc1 [4-bromo-N-[5-chloro-2-(methylthio)phenyl]benzenesulfonamide]
7 | 78 | 50 | CC[S+]([O-])c1ccc(Cl)cc1NS(=O)(=O)c1ccc(Cl)c(C(F)(F)F)c1 (centres unmarked) [4-chloro-N-[5-chloro-2-(ethylsulfinyl)phenyl]-3-(trifluoromethyl)benzenesulfonamide]
8 | 90 | 88 | CCS(=O)(=O)c1ccc(Cl)cc1NS(=O)(=O)c1ccc(Cl)c(C(F)(F)F)c1 [4-chloro-N-[5-chloro-2-(ethylsulfonyl)phenyl]-3-(trifluoromethyl)benzenesulfonamide]
9 | 81 | 193 | CCSc1ccc(Cl)cc1NS(=O)(=O)c1ccc(Cl)c(C(F)(F)F)c1 [4-chloro-N-[5-chloro-2-(ethylthio)phenyl]-3-(trifluoromethyl)benzenesulfonamide]
10 | 72 | 379 | CC(C)Sc1ccc(Cl)cc1NS(=O)(=O)c1ccc(Cl)c(C(F)(F)F)c1 [4-chloro-N-[5-chloro-2-(isopropylthio)phenyl]-3-(trifluoromethyl)benzenesulfonamide]
11 | 103 | 85 | C[S+]([O-])c1ccc(Cl)cc1NS(=O)(=O)c1ccc(Cl)cc1F (centres unmarked) [4-chloro-N-[5-chloro-2-(methylsulfinyl)phenyl]-2-fluorobenzenesulfonamide]
12 | 78 | 14 | C[S+]([O-])c1ccc(Cl)cc1NS(=O)(=O)c1ccc(Cl)c(C(F)(F)F)c1 (centres unmarked) [4-chloro-N-[5-chloro-2-(methylsulfinyl)phenyl]-3-(trifluoromethyl)benzenesulfonamide]
13 | 91 | 62 | C[S+]([O-])c1ccc(Cl)cc1NS(=O)(=O)c1ccc(Cl)cc1 (centres unmarked) [4-chloro-N-[5-chloro-2-(methylsulfinyl)phenyl]benzenesulfonamide]
14 | 98 | 171 | CS(=O)(=O)c1ccc(Cl)cc1NS(=O)(=O)c1ccc(Cl)cc1F [4-chloro-N-[5-chloro-2-(methylsulfonyl)phenyl]-2-fluorobenzenesulfonamide]
15 | 90 | 64 | CS(=O)(=O)c1ccc(Cl)cc1NS(=O)(=O)c1ccc(Cl)c(C(F)(F)F)c1 [4-chloro-N-[5-chloro-2-(methylsulfonyl)phenyl]-3-(trifluoromethyl)benzenesulfonamide]
16 | 98 | 155 | CS(=O)(=O)c1ccc(Cl)cc1NS(=O)(=O)c1ccc(Cl)cc1 [4-chloro-N-[5-chloro-2-(methylsulfonyl)phenyl]benzenesulfonamide]
17 | 82 | 134 | CSc1ccc(Cl)cc1NS(=O)(=O)c1ccc(Cl)c(C(F)(F)F)c1 [4-chloro-N-[5-chloro-2-(methylthio)phenyl]-3-(trifluoromethyl)benzenesulfonamide]

Row | CCR2 % ANTAGONISM [%] | IC50 [nM] | Compound
18 | 93 | 453 | CSc1ccc(Cl)cc1NS(=O)(=O)c1ccc(Cl)c(C)c1 [4-chloro-N-[5-chloro-2-(methylthio)phenyl]-3-methylbenzenesulfonamide]
19 | 94 | 406 | CSc1ccc(Cl)cc1NS(=O)(=O)c1ccc(Cl)cc1 [4-chloro-N-[5-chloro-2-(methylthio)phenyl]benzenesulfonamide]
20 | 109 | 163 | O=S(=O)(Nc1cc(Cl)ccc1[S+]([O-])Cc1ncc[nH]1)c1ccc(Cl)c(C(F)(F)F)c1 (centres unmarked) [4-chloro-N-{5-chloro-2-[(1H-imidazol-2-ylmethyl)sulfinyl]phenyl}-3-(trifluoromethyl)benzenesulfonamide]
21 | 113 | 249 | O=S(=O)(Cc1ncc[nH]1)c1ccc(Cl)cc1NS(=O)(=O)c1ccc(Cl)c(C(F)(F)F)c1 [4-chloro-N-{5-chloro-2-[(1H-imidazol-2-ylmethyl)sulfonyl]phenyl}-3-(trifluoromethyl)benzenesulfonamide]
22 | 84 | 190 | O=S(=O)(Nc1cc(Cl)ccc1SCc1ncc[nH]1)c1ccc(Cl)c(C(F)(F)F)c1 [4-chloro-N-{5-chloro-2-[(1H-imidazol-2-ylmethyl)thio]phenyl}-3-(trifluoromethyl)benzenesulfonamide]
23 | 111 | 158 | O=S(=O)(Nc1cc(Cl)ccc1[S+]([O-])Cc1c[nH]cn1)c1ccc(Cl)c(C(F)(F)F)c1 (centres unmarked) [4-chloro-N-{5-chloro-2-[(1H-imidazol-4-ylmethyl)sulfinyl]phenyl}-3-(trifluoromethyl)benzenesulfonamide]
24 | 108 | 51 | O=S(=O)(Cc1c[nH]cn1)c1ccc(Cl)cc1NS(=O)(=O)c1ccc(Cl)c(C(F)(F)F)c1 [4-chloro-N-{5-chloro-2-[(1H-imidazol-4-ylmethyl)sulfonyl]phenyl}-3-(trifluoromethyl)benzenesulfonamide]
25 | 83 | 68 | O=S(=O)(Nc1cc(Cl)ccc1SCc1c[nH]cn1)c1ccc(Cl)c(C(F)(F)F)c1 [4-chloro-N-{5-chloro-2-[(1H-imidazol-4-ylmethyl)thio]phenyl}-3-(trifluoromethyl)benzenesulfonamide]
26 | 101 | 146 | O=S(=O)(Nc1cc(Cl)ccc1[S+]([O-])CCO)c1ccc(Cl)c(C(F)(F)F)c1 (centres unmarked) [4-chloro-N-{5-chloro-2-[(2-hydroxyethyl)sulfinyl]phenyl}-3-(trifluoromethyl)benzenesulfonamide]
27 | 96 | 95 | O=S(=O)(CCO)c1ccc(Cl)cc1NS(=O)(=O)c1ccc(Cl)c(C(F)(F)F)c1 [4-chloro-N-{5-chloro-2-[(2-hydroxyethyl)sulfonyl]phenyl}-3-(trifluoromethyl)benzenesulfonamide]
28 | 88 | 153 | O=S(=O)(Nc1cc(Cl)ccc1SCCO)c1ccc(Cl)c(C(F)(F)F)c1 [4-chloro-N-{5-chloro-2-[(2-hydroxyethyl)thio]phenyl}-3-(trifluoromethyl)benzenesulfonamide]
29 | 101 | 107 | O=S(=O)(Nc1cc(Cl)ccc1[S+]([O-])C1CCC(O)C1)c1ccc(Cl)c(C(F)(F)F)c1 (centres unmarked) [4-chloro-N-{5-chloro-2-[(3-hydroxycyclopentyl)sulfinyl]phenyl}-3-(trifluoromethyl)benzenesulfonamide]
30 | 97 | 76 | O=S(=O)(Nc1cc(Cl)ccc1S(=O)(=O)C1CCC(O)C1)c1ccc(Cl)c(C(F)(F)F)c1 (centres unmarked) [4-chloro-N-{5-chloro-2-[(3-hydroxycyclopentyl)sulfonyl]phenyl}-3-(trifluoromethyl)benzenesulfonamide]
31 | 83 | 92 | O=S(=O)(Nc1cc(Cl)ccc1[S+]([O-])Cc1ccccn1)c1ccc(Cl)c(C(F)(F)F)c1 (centres unmarked) [4-chloro-N-{5-chloro-2-[(pyridin-2-ylmethyl)sulfinyl]phenyl}-3-(trifluoromethyl)benzenesulfonamide]
32 | 79 | 199 | O=S(=O)(Nc1cc(Cl)ccc1SCc1ccccn1)c1ccc(Cl)c(C(F)(F)F)c1 [4-chloro-N-{5-chloro-2-[(pyridin-2-ylmethyl)thio]phenyl}-3-(trifluoromethyl)benzenesulfonamide]
33 | 97 | 112 | O=S(=O)(Nc1cc(Cl)ccc1[S+]([O-])Cc1cccnc1)c1ccc(Cl)c(C(F)(F)F)c1 (centres unmarked) [4-chloro-N-{5-chloro-2-[(pyridin-3-ylmethyl)sulfinyl]phenyl}-3-(trifluoromethyl)benzenesulfonamide]
